# In PMC12102759 (Protein Science : A Publication of the Protein Society, 2025):
# System: G3BP1 NFT2
# Format: binding, human
# Details: library DMS-CoV; bait G3BP1 NFT2; prey N; peptide APRITFGGPSDSTGSN; listed as aa = residue placed at this position; column sums to 1
Sequence,"DMS PSSM value, T (position 5)","DMS PSSM value, A (position 1)","DMS PSSM value, G (position 14)","DMS PSSM value, G (position 7)","DMS PSSM value, T (position 13)","DMS PSSM value, G (position 8)","DMS PSSM value, S (position 12)","DMS PSSM value, P (position 2)","DMS PSSM value, S (position 10)","DMS PSSM value, R (position 3)"
APRITFGGPSDSTGSN T5M (APRIMFGGPSDSTGSN),0,,,,,,,,,
APRITFGGPSDSTGSN A1W (WPRITFGGPSDSTGSN),,0.0009046,,,,,,,,
APRITFGGPSDSTGSN G14N (APRITFGGPSDSTNSN),,,0.000305,,,,,,,
APRITFGGPSDSTGSN G7S (APRITFSGPSDSTGSN),,,,0,,,,,,
APRITFGGPSDSTGSN T13I (APRITFGGPSDSIGSN),,,,,0.0005621,,,,,
APRITFGGPSDSTGSN G8Q (APRITFGQPSDSTGSN),,,,,,0,,,,
APRITFGGPSDSTGSN S12W (APRITFGGPSDWTGSN),,,,,,,0.01354,,,
APRITFGGPSDSTGSN S12L (APRITFGGPSDLTGSN),,,,,,,0.001118,,,
APRITFGGPSDSTGSN G8D (APRITFGDPSDSTGSN),,,,,,0,,,,
APRITFGGPSDSTGSN P2Y (AYRITFGGPSDSTGSN),,,,,,,,0,,
APRITFGGPSDSTGSN S10N (APRITFGGPNDSTGSN),,,,,,,,,0,
APRITFGGPSDSTGSN G14D (APRITFGGPSDSTDSN),,,0.0004838,,,,,,,
APRITFGGPSDSTGSN R3G (APGITFGGPSDSTGSN),,,,,,,,,,0.02417
APRITFGGPSDSTGSN T5H (APRIHFGGPSDSTGSN),0,,,,,,,,,
APRITFGGPSDSTGSN T13W (APRITFGGPSDSWGSN),,,,,0,,,,,
APRITFGGPSDSTGSN S12Q (APRITFGGPSDQTGSN),,,,,,,0.01405,,,
APRITFGGPSDSTGSN T5V (APRIVFGGPSDSTGSN),0,,,,,,,,,
APRITFGGPSDSTGSN T13L (APRITFGGPSDSLGSN),,,,,0.003677,,,,,
APRITFGGPSDSTGSN R3K (APKITFGGPSDSTGSN),,,,,,,,,,0.0004363

Sequence,"DMS PSSM value, T (position 5)","DMS PSSM value, A (position 1)","DMS PSSM value, G (position 14)","DMS PSSM value, G (position 7)","DMS PSSM value, T (position 13)","DMS PSSM value, G (position 8)","DMS PSSM value, S (position 12)","DMS PSSM value, P (position 2)","DMS PSSM value, S (position 10)","DMS PSSM value, R (position 3)"
APRITFGGPSDSTGSN R3H (APHITFGGPSDSTGSN),,,,,,,,,,0.008447
APRITFGGPSDSTGSN S12M (APRITFGGPSDMTGSN),,,,,,,0.01193,,,
APRITFGGPSDSTGSN P2I (AIRITFGGPSDSTGSN),,,,,,,,0,,
APRITFGGPSDSTGSN T5P (APRIPFGGPSDSTGSN),0,,,,,,,,,
APRITFGGPSDSTGSN S10K (APRITFGGPKDSTGSN),,,,,,,,,0.006118,
APRITFGGPSDSTGSN P2H (AHRITFGGPSDSTGSN),,,,,,,,0,,
APRITFGGPSDSTGSN S10E (APRITFGGPEDSTGSN),,,,,,,,,0.06961,
APRITFGGPSDSTGSN S12V (APRITFGGPSDVTGSN),,,,,,,0.04482,,,
APRITFGGPSDSTGSN R3W (APWITFGGPSDSTGSN),,,,,,,,,,0.01451
APRITFGGPSDSTGSN T13P (APRITFGGPSDSPGSN),,,,,0.005019,,,,,
APRITFGGPSDSTGSN G7M (APRITFMGPSDSTGSN),,,,0,,,,,,
APRITFGGPSDSTGSN G7E (APRITFEGPSDSTGSN),,,,0.08457,,,,,,
APRITFGGPSDSTGSN A1M (MPRITFGGPSDSTGSN),,0.03133,,,,,,,,
APRITFGGPSDSTGSN A1L (LPRITFGGPSDSTGSN),,0.0004523,,,,,,,,
APRITFGGPSDSTGSN G7I (APRITFIGPSDSTGSN),,,,0,,,,,,
APRITFGGPSDSTGSN T5I (APRIIFGGPSDSTGSN),0.002921,,,,,,,,,
APRITFGGPSDSTGSN S10A (APRITFGGPADSTGSN),,,,,,,,,0.0189,
APRITFGGPSDSTGSN P2R (ARRITFGGPSDSTGSN),,,,,,,,0,,

# Same assay, conditions: library DMS-CoV; bait G3BP1 NFT2; prey N; peptide APRITFGGPSDSTGSN; listed as aa = residue placed at this position; column sums to 1
Sequence,"DMS PSSM value, S (position 15)","DMS PSSM value, F (position 6)","DMS PSSM value, I (position 4)","DMS PSSM value, P (position 9)","DMS PSSM value, D (position 11)"
APRITFGGPSDSTGSN S15A (APRITFGGPSDSTGAN),0.001992,,,,
APRITFGGPSDSTGSN F6T (APRITTGGPSDSTGSN),,0,,,
APRITFGGPSDSTGSN I4E (APRETFGGPSDSTGSN),,,0,,
APRITFGGPSDSTGSN P9I (APRITFGGISDSTGSN),,,,0.01105,
APRITFGGPSDSTGSN I4N (APRNTFGGPSDSTGSN),,,0,,
APRITFGGPSDSTGSN P9A (APRITFGGASDSTGSN),,,,0.001999,
APRITFGGPSDSTGSN I4T (APRTTFGGPSDSTGSN),,,0,,
APRITFGGPSDSTGSN I4W (APRWTFGGPSDSTGSN),,,0,,
APRITFGGPSDSTGSN I4R (APRRTFGGPSDSTGSN),,,0,,
APRITFGGPSDSTGSN I4A (APRATFGGPSDSTGSN),,,0,,
APRITFGGPSDSTGSN F6A (APRITAGGPSDSTGSN),,0,,,
APRITFGGPSDSTGSN D11A (APRITFGGPSASTGSN),,,,,0.0135
